In ChEMBL document CHEMBL5380795, “Design, Synthesis, and Bioactivity Investigation of Cyclic Lipopeptide Antibiotics Containing Eight to Nine Amino Acids” (J Med Chem, 2023):
Converted amounts (≈) assume the structure as drawn. Bridge positions count the residues as written; N and C are the ends. Square brackets hold non-standard residues; d marks the D form. Peptide text beside a SMILES is read from it. * marks the point of attachment. X1 = CC[C@H](C)CCCCC(=O)*; Dab = NCC[C@H](N)C(=O)O

Assays:
Pseudomonas aeruginosa [1] = assay: Antibacterial activity against Pseudomonas aeruginosa ATCC 27853 assessed as inhibition of bacterial growth incubated for 18 to 24 hrs by broth microdilution method; assay type: functional; details: time 18-24 hrs
Escherichia coli [2] = assay: Antibacterial activity against Escherichia coli; assay type: functional
[3] = test system: Staphylococcus epidermidis; assay: Antibacterial activity against Staphylococcus epidermidis; assay type: functional
Escherichia coli [4] = assay: Antibacterial activity against Escherichia coli NCTC 13353 assessed as inhibition of bacterial growth incubated for 18 to 24 hrs by broth microdilution method; assay type: functional; details: time 18-24 hrs
Staphylococcus aureus [5] = assay: Antibacterial activity against methicillin resistant Staphylococcus aureus ATCC 33591 assessed as inhibition of bacterial growth incubated for 18 to 24 hrs by broth microdilution method; assay type: functional; details: time 18-24 hrs
Acinetobacter baumannii [6] = assay: Antibacterial activity against Acinetobacter baumannii; assay type: functional
Pseudomonas aeruginosa [7] = assay: Antibacterial activity against carbapenem resistant Pseudomonas aeruginosa clinical isolate 19-3 assessed as inhibition of bacterial growth incubated for 18 to 24 hrs by broth microdilution method; assay type: functional; details: time 18-24 hrs
Klebsiella pneumoniae [8] = assay: Antibacterial activity against KPC producing Klebsiella pneumoniae ATCC BAA-1705 assessed as inhibition of bacterial growth incubated for 18 to 24 hrs by broth microdilution method; assay type: functional; details: time 18-24 hrs
Escherichia coli [9] = assay: Antibacterial activity against Escherichia coli clinical isolate 19-2 assessed as inhibition of bacterial growth incubated for 18 to 24 hrs by broth microdilution method; assay type: functional; details: time 18-24 hrs
Klebsiella pneumoniae [10] = assay: Antibacterial activity against carbapenem resistant Klebsiella pneumoniae clinical isolate 19-17 assessed as inhibition of bacterial growth incubated for 18 to 24 hrs by broth microdilution method; assay type: functional; details: time 18-24 hrs
Acinetobacter baumannii [11] = assay: Antibacterial activity against carbapenem resistant Acinetobacter baumannii clinical isolate 19-8 assessed as inhibition of bacterial growth incubated for 18 to 24 hrs by broth microdilution method; assay type: functional; details: time 18-24 hrs
Staphylococcus aureus [12] = assay: Antibacterial activity against Staphylococcus aureus ATCC 29213 assessed as inhibition of bacterial growth incubated for 18 to 24 hrs by broth microdilution method; assay type: functional; details: time 18-24 hrs
Escherichia coli [13] = assay: Antibacterial activity against Escherichia coli ATCC BAA-2523 assessed as inhibition of bacterial growth incubated for 18 to 24 hrs by broth microdilution method; assay type: functional; details: time 18-24 hrs
Escherichia coli [14] = assay: Antibacterial activity against KPC producing Escherichia coli ATCC BAA-2340 assessed as inhibition of bacterial growth incubated for 18 to 24 hrs by broth microdilution method; assay type: functional; details: time 18-24 hrs
[15] = test system: Staphylococcus epidermidis; assay: Antibacterial activity against methicillin resistant Staphylococcus epidermidis clinical isolate 19-5 assessed as inhibition of bacterial growth incubated for 18 to 24 hrs by broth microdilution method; assay type: functional; details: time 18-24 hrs
Pseudomonas aeruginosa [16] = assay: Antibacterial activity against carbapenem resistant Pseudomonas aeruginosa clinical isolate 17-1 assessed as inhibition of bacterial growth incubated for 18 to 24 hrs by broth microdilution method; assay type: functional; details: time 18-24 hrs
Candida albicans = assay: Antifungal activity against Candida albicans; assay type: functional
Acinetobacter baumannii [17] = assay: Antibacterial activity against oxacillinase-27 producing Acinetobacter baumannii NCTC 13304 assessed as inhibition of bacterial growth incubated for 18 to 24 hrs by broth microdilution method; assay type: functional; details: time 18-24 hrs
[18] = Cytotoxicity against human HK-2 cells assessed as inhibition of cell growth incubated for 72 hrs by CCK-8 assay; assay type: toxicity, cell-based
[19] = Selectivity index, ratio of IC50 for cytotoxicity against human HK-2 cells to MIC for antibacterial activity against Escherichia coli ATCC BAA-2523; assay type: toxicity, cell-based
[20] = test system: Staphylococcus epidermidis; assay: Antibacterial activity against methicillin resistant Staphylococcus epidermidis clinical isolate 19-6 assessed as inhibition of bacterial growth incubated for 18 to 24 hrs by broth microdilution method; assay type: functional; details: time 18-24 hrs
Staphylococcus aureus [21] = assay: Antibacterial activity against Staphylococcus aureus; assay type: functional
Klebsiella pneumoniae [22] = assay: Antibacterial activity against Klebsiella pneumoniae; assay type: functional
Klebsiella pneumoniae [23] = assay: Antibacterial activity against carbapenem resistant Klebsiella pneumoniae clinical isolate 19-15 assessed as inhibition of bacterial growth incubated for 18 to 24 hrs by broth microdilution method; assay type: functional; details: time 18-24 hrs
Pseudomonas aeruginosa [24] = assay: Antibacterial activity against Pseudomonas aeruginosa clinical isolate 19-1 assessed as inhibition of bacterial growth incubated for 18 to 24 hrs by broth microdilution method; assay type: functional; details: time 18-24 hrs
Pseudomonas aeruginosa [25] = assay: Antibacterial activity against Pseudomonas aeruginosa; assay type: functional
Escherichia coli [26] = assay: Antibacterial activity against Escherichia coli ATCC 25922 assessed as inhibition of bacterial growth incubated for 18 to 24 hrs by broth microdilution method; assay type: functional; details: time 18-24 hrs

| Structure (SMILES) | MIC (Pseudomonas aeruginosa [1]) | MIC (Escherichia coli [2]) | MIC (Escherichia coli [4]) | MIC (Staphylococcus aureus [5]) | MIC (Pseudomonas aeruginosa [7]) | MIC (Klebsiella pneumoniae [8]) | MIC (Escherichia coli [9]) | MIC (Klebsiella pneumoniae [10]) | MIC (Acinetobacter baumannii [11]) | MIC (Staphylococcus aureus [12]) | MIC (Escherichia coli [13]) | MIC (Escherichia coli [14]) | MIC [15] | MIC (Pseudomonas aeruginosa [16]) | MIC (Acinetobacter baumannii [17]) | IC50 at 72 h [18] | selectivity ratio [19] | MIC [20] | MIC (Klebsiella pneumoniae [23]) | MIC (Pseudomonas aeruginosa [24]) | other results |
| --- | --- | --- | --- | --- | --- | --- | --- | --- | --- | --- | --- | --- | --- | --- | --- | --- | --- | --- | --- | --- | --- |
| CCCCCCC[C@@H](O)CC(=O)N[C@H](CCN)C(=O)N[C@H]1CCNC(=O)[C@H](CC(C)C)NC(=O)[C@H](CCN)NC(=O)[C@H](CCN)NC(=O)[C@H](Cc2ccccc2)NC(=O)[C@@H](CC(C)C)NC(=O)[C@H](CCN)NC1=O | 2 mg/L (≈ 1.92 µM) | 0.1 mg/L (≈ 0.0958 µM) | 16 mg/L (≈ 15.3 µM) | 32 mg/L (≈ 30.6 µM) | 4 mg/L (≈ 3.83 µM) | 8 mg/L (≈ 7.66 µM) | 16 mg/L (≈ 15.3 µM) | 16 mg/L (≈ 15.3 µM) | 4 mg/L (≈ 3.83 µM) | 32 mg/L (≈ 30.6 µM) | 8 mg/L (≈ 7.66 µM) | 8 mg/L (≈ 7.66 µM) | 2 mg/L (≈ 1.92 µM) | 2 mg/L (≈ 1.92 µM) | 8 mg/L (≈ 7.66 µM) | 16.1 mg/L (≈ 15.4 µM) | 2 | 8 mg/L (≈ 7.66 µM) | 16 mg/L (≈ 15.3 µM) | 4 mg/L (≈ 3.83 µM) | MIC [3]: 0.6 mg/L (≈ 0.575 µM); MIC (Acinetobacter baumannii [6]): 4 mg/L (≈ 3.83 µM); MIC (Candida albicans): 4.7 mg/L (≈ 4.5 µM); MIC (Staphylococcus aureus [21]): 3.1 mg/L (≈ 2.97 µM); MIC (Klebsiella pneumoniae [22]): 0.78 mg/L (≈ 0.747 µM); MIC (Pseudomonas aeruginosa [25]): 0.4 mg/L (≈ 0.383 µM) |
| CC[C@H](C)CCCCC(=O)N[C@@H](CCN)C(=O)N[C@H](C(=O)N[C@@H](CCN)C(=O)N[C@H]1CCNC(=O)[C@H]([C@@H](C)O)NC(=O)[C@H](CCN)NC(=O)[C@H](CCN)NC(=O)[C@H](CC(C)C)NC(=O)[C@@H](Cc2ccccc2)NC(=O)[C@H](CCN)NC1=O)[C@@H](C)O (X1-[Dab]T[Dab][Dab][Dab][dF]L[Dab][Dab]T; lactam 4-C) | 0.5 mg/L (≈ 0.415 µM) | 0.05 mg/L (≈ 0.0415 µM) | 0.5 mg/L (≈ 0.415 µM) | > 64 mg/L | 0.125 mg/L (≈ 0.104 µM) | ≤ 0.06 mg/L | ≤ 0.06 mg/L | 0.25 mg/L (≈ 0.208 µM) | ≤ 0.06 mg/L | > 64 mg/L | < 0.06 mg/L | ≤ 0.06 mg/L | 4 mg/L (≈ 3.32 µM) | 0.25 mg/L (≈ 0.208 µM) | ≤ 0.06 mg/L |  |  | 16 mg/L (≈ 13.3 µM) | 0.125 mg/L (≈ 0.104 µM) | 0.25 mg/L (≈ 0.208 µM) | MIC (Acinetobacter baumannii [6]): 1 mg/L (≈ 0.831 µM); MIC (Escherichia coli [26]): 0.25 mg/L (≈ 0.208 µM); MIC (Klebsiella pneumoniae [22]): 1 mg/L (≈ 0.831 µM); MIC (Pseudomonas aeruginosa [25]): 0.2 mg/L (≈ 0.166 µM) |
| CCCCCCCCCC(=O)N[C@H](CCN)C(=O)N[C@H]1CCNC(=O)[C@H]([C@@H](C)O)NC(=O)[C@H](CCN)NC(=O)[C@H](CCN)NC(=O)[C@H](CC(C)C)NC(=O)[C@@H](Cc2ccccc2Cl)NC(=O)[C@H](CCN)NC1=O | 32 mg/L (≈ 30.5 µM) |  | 8 mg/L (≈ 7.61 µM) | > 64 mg/L | 2 mg/L (≈ 1.9 µM) | 2 mg/L (≈ 1.9 µM) | 2 mg/L (≈ 1.9 µM) | 4 mg/L (≈ 3.81 µM) | 64 mg/L (≈ 60.9 µM) | 64 mg/L (≈ 60.9 µM) | 2 mg/L (≈ 1.9 µM) | 2 mg/L (≈ 1.9 µM) | 4 mg/L (≈ 3.81 µM) | 64 mg/L (≈ 60.9 µM) | 32 mg/L (≈ 30.5 µM) | 54.6 mg/L (≈ 52 µM) | 27.3 | 2 mg/L (≈ 1.9 µM) | 4 mg/L (≈ 3.81 µM) | 2 mg/L (≈ 1.9 µM) |  |
| CCCCCCCCC(=O)N[C@H](CCN)C(=O)N[C@H]1CCNC(=O)[C@H](CC(C)C)NC(=O)[C@H](CCN)NC(=O)[C@H](CCN)NC(=O)[C@H](CC(C)C)NC(=O)[C@@H](CC(C)C)NC(=O)[C@H](CCN)NC1=O | 1 mg/L (≈ 1.02 µM) |  | 16 mg/L (≈ 16.3 µM) | > 64 mg/L | 4 mg/L (≈ 4.08 µM) | 2 mg/L (≈ 2.04 µM) | 32 mg/L (≈ 32.6 µM) | 16 mg/L (≈ 16.3 µM) | 8 mg/L (≈ 8.16 µM) | > 64 mg/L | 16 mg/L (≈ 16.3 µM) | 2 mg/L (≈ 2.04 µM) | 4 mg/L (≈ 4.08 µM) | 2 mg/L (≈ 2.04 µM) | 8 mg/L (≈ 8.16 µM) | 77.4 mg/L (≈ 79 µM) | 4.8 | 16 mg/L (≈ 16.3 µM) | 16 mg/L (≈ 16.3 µM) | 4 mg/L (≈ 4.08 µM) |  |
